Experimental data: patent US9670549B2, “Gene expression signatures of neoplasm responsiveness to therapy” (The United States of America, as represented by the …, priority 2011, dated 2017)

Key:
[1] = tested on: cleaved PARP, BCL-xL, Survivin; assay: Western blot of apoptosis proteins (U266, L363 lysates); assay type: cell-based, human; conditions: U266 or L363 lysates, 48 hours
Procedure: In sequential experiments, the first agent listed was added 24 hours prior to the addition of the second agent.
Western blot of control, single agent, and combination treated (D) L363 or (E) U266 cells at 48 hours.

HDAC2 = HDAC2 (Homo sapiens, UniProt Q92769); conditions: cited from earlier work
HDAC1 = HDAC1 (Homo sapiens, UniProt Q13547); conditions: cited from earlier work
RRM2, γH2AX = assay: Western blot of L363 lysates for RRM2 and DNA damage marker; conditions: L363, 48 hours; sirolimus 10 nM, entinostat 0.5 μM, Triapine 1 μM
Procedure: (§1) L363 cell viability after 48 hour treatment with triapine and/or sirolimus. Significance between treatments was determined by repeated measures ANOVA with the Bonferroni correction.

L363 cells = assay: L363 cell viability after triapine and/or sirolimus; conditions: L363, 48 hour treatment
Procedure: as §1

Sequence of HDAC1 (Q13547 whole entry): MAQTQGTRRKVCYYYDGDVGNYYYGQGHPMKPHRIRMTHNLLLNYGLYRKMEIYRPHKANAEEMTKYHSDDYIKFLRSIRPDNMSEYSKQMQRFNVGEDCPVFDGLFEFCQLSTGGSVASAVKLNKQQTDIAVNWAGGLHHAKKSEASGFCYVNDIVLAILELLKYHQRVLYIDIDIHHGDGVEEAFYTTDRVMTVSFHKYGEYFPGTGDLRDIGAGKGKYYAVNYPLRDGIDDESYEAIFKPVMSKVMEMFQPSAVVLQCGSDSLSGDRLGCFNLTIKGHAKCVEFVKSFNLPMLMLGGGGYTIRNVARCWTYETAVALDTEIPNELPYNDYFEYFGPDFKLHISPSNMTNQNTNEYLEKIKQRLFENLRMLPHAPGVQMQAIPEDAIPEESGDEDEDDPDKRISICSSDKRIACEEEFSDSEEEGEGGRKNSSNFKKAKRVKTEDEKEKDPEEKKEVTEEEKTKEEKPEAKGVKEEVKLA
Sequence of HDAC2 (Q92769 whole entry): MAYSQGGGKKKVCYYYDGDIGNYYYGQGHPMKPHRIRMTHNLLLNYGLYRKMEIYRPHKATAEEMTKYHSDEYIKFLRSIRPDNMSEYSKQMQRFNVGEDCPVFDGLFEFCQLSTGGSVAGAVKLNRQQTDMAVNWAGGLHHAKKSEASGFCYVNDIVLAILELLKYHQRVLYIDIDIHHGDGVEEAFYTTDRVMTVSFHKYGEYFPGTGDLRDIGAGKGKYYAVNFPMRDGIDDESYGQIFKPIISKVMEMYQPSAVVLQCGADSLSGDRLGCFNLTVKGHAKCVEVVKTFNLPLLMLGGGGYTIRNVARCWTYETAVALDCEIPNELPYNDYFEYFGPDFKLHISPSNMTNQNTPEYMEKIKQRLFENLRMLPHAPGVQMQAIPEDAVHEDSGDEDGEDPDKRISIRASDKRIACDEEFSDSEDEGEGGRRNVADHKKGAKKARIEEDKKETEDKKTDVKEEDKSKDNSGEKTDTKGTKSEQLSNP

## Nc1ccccc1NC(=O)c1ccc(CNC(=O)OCc2cccnc2)cc1 [entinostat]
[1]
  PARP cleavage: observed
HDAC2
  activity for HDAC2: weak activity
HDAC1
  activity against HDAC1: strong activity
  affinity for HDAC1: high affinity

## NC(=S)N/N=C/c1ncccc1N [triapine]
RRM2, γH2AX
  DNA damage marker γH2AX: increased yH2AX
L363 cells
  MM cell viability: inhibited MM cell viability
